Where two headings read alike, the source gives them in different places.
Experiments:
sickle RBCs [1] = settings: 20 nM epinephrine, non-activated HUVECs
ERK [2] = settings: 20 nM epinephrine; n=19; p<0.05
ERK [3] = assay: ERK phosphorylation in sickle RBCs exposed to hypoxia (Western blot of membrane ghosts); type: cell-based, human; settings: hypoxia 8% oxygen 2 hours
SSRBCs = assay: SSRBC adhesion to HUVECs after PTx/CTx treatment, with or without tyrosine kinase inhibitors, intermittent flow; type: cell-based, human; settings: 1 μM inhibitor before 1 μg/ml PTx; for inhibition of the effect of PTx on sickle cell adhesion: shear stress 2 dynes/cm^2, p<0.01
Method: FIG. 9 is a set of figures showing that activation of Gas protein increased SSRBC adhesion to endothelial cells via activation of tyrosine kinases. FIG. 9A is a schematic depiction of GPCR pathways along with inhibitors and stimuli of the kinases of these pathways regulating SSRBC adhesion. FIGS. 9B-E are a set of graphs showing adherence of RBCs which were sham-treated, or treated with Pertussis toxin (PTx) (0.5, 1 or 2 μg/ml) (FIGS. 9B-D), 1 μg/ml Cholera toxin (CTx) (FIG. 9B) or phenylarsine oxide (0.1, 10, 20, 40 and 80 μM) (FIG. 9E), or pretreated with 1 μM PP1, 1 μM PP2 or 1 μM piceatannol prior to treatment with 1 μg/ml PTx (FIG. 9C and FIG. 9D). Treated RBCs were tested for adhesion to HUVECs in intermittent flow conditions at different shear stresses. Data are presented as % adherent RBCs (FIG. 9B) or SSRBCs (FIG. 9C-FIG. 9E) at a shear stress of 2 dynes/cm^2. Each graph is representative of 3 different experiments. Error bars show standard error of the mean (SEM). *: p<0.001 compared to sham-treated RBCs; **: p<0.01 compared to PTx-treated RBCs.
Vaso-occlusion is associated with various types of physiological stress. β2-adrenergic receptors (β2AR) stimulation with catacholamines employs both Gas and &Gai (or Ga0) pathways. We first determined the Ga, Gas and/or Gai, in sickle cell regulating tyrosine kinase activation-mediated sickle cell adhesion to endothelial cells (FIG. 9A). Sickle cells adhered to some degree to endothelial cells under intermittent flow conditions at a shear stress of 2 dynes/cm^2. (FIGS. 9B-D). […] The selective Src-family kinase inhibitors, PP1 and PP2 (FIG. 9A), and the non-receptor tyrosine kinase p72^Syk inhibitor, piceatannol (FIG. 9A), inhibited the effect of PTx on sickle cell adhesion by 67±2.7%, 64±1.7% and 60 ±5.5%, respectively (p<0.01) (FIGS. 9C and 9D).

p60-c-Src [4] = assay: p60-c-Src phosphorylation in SSRBCs (Western blot of membrane ghosts); type: cell-based, human; settings: 1 μM inhibitor before 1 μg/ml PTx; p<0.0001
Source text: (§1) FIG. 10 is a set of figures showing inhibition of Gai protein increased phosphorylation of p72^syk and p60-c-Src tyrosine kinases in intact SSRBCs. FIG. 10A-FIG. 10G show the kinase expression results for twenty μg of membrane protein ghosts (SSRBC ghosts, n=7, SS1, SS2, SS3, SS4, SS5, SS6 and SS7; and normal RBC ghosts, n=7, AA1, AA2, AA3AA4, AA5, AA6 and AA7) were used per lane. FIG. 10A-FIG. 10D show Western blots and corresponding graphs showing the kinase expression results of protein ghosts which were stained with antibodies against phosphorylated p60-c-Src [p-p60-c-Src (SS1, SS2, SS3, SS4; and AA1, AA2, AA3, AA4)] and p60-c-Src [p60-c-Src (SS1, SS2, SS3, SS4, SS5, SS6, SS7, and AA1, AA2, AA3, AA4, AA5, AA6, AA7)]; and phosphorylated p72^syk [p-Syk (SS1, SS2, SS3, SS4; and AA1, AA2, AA3, AA4)] and p72^syk[Syk (SS1, SS2, SS3, SS4, SS5, SS6, SS7; and AA1, AA2, AA3, AA4, AA5, AA6, AA7)]. Antibody against glycophorin C was used as a loading control. FIG. 10C and FIG. 10D show the quantitative analysis of the data presented as relative kinase expression [SSRBCs (n=7) and AARBCs (n=7)], and as relative kinase phosphorylation [SSRBCs (n=4) and AARBCs (n=4)]. […] Quantitative analysis of the data (normalized according to total kinase expression) is presented as fold change in p60-c-Src phosphorylation (FIG. 10E and FIG. 10F) and Syk phosphorylation (FIG. 10G). […]

p60-c-Src [5] = assay: p60-c-Src phosphorylation in normal RBCs (Western blot); type: cell-based, human; settings: 1 μM PP1; normal RBCs by context (FIG. 10F)
Source text: as §1

sickle cells = assay: Hypoxia-induced sickle cell adhesion to microvascular endothelial cells, intermittent flow; type: cell-based, human; settings: hypoxia 8% O2 2 h, then RDEA119; shear stress 1-2 dynes/cm^2
Method: Sickle cells were exposed to room air (sham) or hypoxia (H) (8% O2) for 2 h followed by treatment with RDEA119 MEK inhibitor, then washed. SSRBC adhesion to microvascular endothelial cells was tested in intermittent flow condition assays, and results are presented as % adherent SSRBCs at a shear stress of 1-2 dynes/cm^2. […] Error bars show SEM of 3 different experiments.
One of the major pathophysiologic processes in SCD is vasoocclusion in response to hypoxia.

human sickle RBCs = assay: Human sickle RBC adhesion and vaso-occlusion in TNFα-pretreated nude mice, intravital microscopy; settings: sickle RBCs treated ex vivo
Method: FIG. 5 is a set of photographs and graphs showing that ERK in sickle RBCs promotes vaso-occlusion in nude mice in vivo. FIG. 5A, FIG. 5B and FIG. 5C are a set of photographs showing nude mice implanted with dorsal skin-fold window chambers after injection with murine TNFα. Four hours later, intravital microscopic observations of post-capillary venules and arterioles using 10× and 20× magnifications were conducted through the window chamber immediately after infusion of fluorescently labeled human sickle RBCs (n=5) that were sham-treated (FIG. 5A; panels 1, 2, 3 and 4) or treated with the MEK inhibitor RDEA119 (FIG. 5B panels 1, 2 and 3), or human normal (AA) RBCs (n=3) sham-treated (FIG. 5C; two panels on the left) or RDEA119-treated (FIG. 5C; 2 panels on the right). Vessels without adherent cells appear gray, due to the rapidly moving of fluorescence labeled RBCs. Adhesion of human sickle RBCs in enflamed vessels and vaso-occlusion are indicated with arrows and appear as white spots in the vessels. […] Scale bar=50 μm. FIG. 5D is a graph showing quantification of the fluorescence intensity of video frames of vessel and arteriole segments used to quantify adhesion in venules and arterioles of animals occupied by sickle RBCs (n=5 for each treatment). Adhesion of fluorescently labeled sham-treated sickle RBCs (sham-treated SS) and RDEA119-treated sickle RBCs (RDEA119-treated SS) in all vessels and arterioles recorded presented as fluorescence intensity [fluorescence unit (FU)] of adherent sickle RBCs. FIG. 5E-FIG. 5G are graphs showing the values of at least 180 segments of vessels and arterioles analyzed and averaged among groups of animals (n=5) to represent percentage of vessels occupied by adherent sickle RBCs (FIG. 5E); percentage of vessels with normal blood flow, slow blood flow and no blood flow (FIG. 5F), and percentage of normal flowing vessels (FIG. 5G). Error bars show SEM of 5 different experiments for each treatment condition, *: p<0.001 compared to sham-treated sickle RBCs regardless of the vessel diameter within the ranges specified for D, E and G. […]

human normal (AA) RBCs = assay: Normal human RBC adhesion in TNFα-pretreated nude mice, intravital microscopy; settings: normal human RBCs treated ex vivo
Source text: FIG. 5 is a set of photographs and graphs showing that ERK in sickle RBCs promotes vaso-occlusion in nude mice in vivo. FIG. 5A, FIG. 5B and FIG. 5C are a set of photographs showing nude mice implanted with dorsal skin-fold window chambers after injection with murine TNFα. […] Vessels without adherent cells appear gray, due to the rapidly moving of fluorescence labeled RBCs. […] FIG. 5D is a graph showing quantification of the fluorescence intensity of video frames of vessel and arteriole segments used to quantify adhesion in venules and arterioles of animals occupied by sickle RBCs (n=5 for each treatment). Adhesion of fluorescently labeled sham-treated sickle RBCs (sham-treated SS) and RDEA119-treated sickle RBCs (RDEA119-treated SS) in all vessels and arterioles recorded presented as fluorescence intensity [fluorescence unit (FU)] of adherent sickle RBCs. FIG. 5E-FIG. 5G are graphs showing the values of at least 180 segments of vessels and arterioles analyzed and averaged among groups of animals (n=5) to represent percentage of vessels occupied by adherent sickle RBCs (FIG. 5E); percentage of vessels with normal blood flow, slow blood flow and no blood flow (FIG. 5F), and percentage of normal flowing vessels (FIG. 5G). […]

leukocytes = assay: Leukocyte adhesion in transgenic sickle cell mice after TNFα challenge; settings: 0.025, 0.05 and 0.1 mg/kg; versus vehicle
murine sickle RBCs = settings: for inhibition of murine sickle RBC adhesion: versus vehicle, p<0.0001
sickle RBCs [6] = assay: Sickle RBC adhesion to non-activated and TNFα-activated HUVECs, intermittent flow; type: cell-based, human; settings: U0126 10 μM; TNFα-activated HUVECs; shear stress 2 dynes/cm^2; p<0.05
neutrophils (PMNs) = settings: sickle RBCs treated with 10 μM U0126, then epinephrine; co-incubated with PMNs
human sickle red cell = settings: systemic administration; cited from earlier work

CNC[C@H](O)c1ccc(O)c(O)c1 [Epinephrine, epinephrine]
sickle cell adhesion to normal endothelial cells (sickle RBCs [1]; shear stress 2 dynes/cm^2): increased sickle cell adhesion to normal endothelial cells | phosphorylation of sickle cell ERK (ERK [2]): increased phosphorylation of sickle cell ERK

O=C1Nc2ccc(I)cc2/C1=C/c1cc(Br)c(O)c(Br)c1 [GW5074]
effect of hypoxia on ERK phosphorylation (ERK [3]): decreased the effect of hypoxia on ERK phosphorylation

Cc1ccc(-c2nn(C(C)(C)C)c3ncnc(N)c23)cc1 [PP1]
inhibition of the effect of PTx on sickle cell adhesion (SSRBCs): 67±2.7% | PTx-increased p60-c-Src phosphorylation in sickle cells (p60-c-Src [4]): to levels below baseline phosphorylation | phosphorylation of p60-c-Src, inhibitor effect (p60-c-Src [5]): inhibited

CC(C)(C)n1nc(-c2ccc(Cl)cc2)c2c(N)ncnc21 [PP2]
inhibition of the effect of PTx on sickle cell adhesion (SSRBCs): 64±1.7% | PTx-increased p60-c-Src phosphorylation in sickle cells (p60-c-Src [4]): to levels below baseline phosphorylation

COc1cc(F)c(F)c(Nc2ccc(I)cc2F)c1NS(=O)(=O)C1(C[C@H](O)CO)CC1 [RDEA119]
effect of hypoxia on sickle cell adhesion to endothelial cells (sickle cells): almost completely inhibited | vaso-occlusion by treated sickle cells (human sickle RBCs; nude mice pretreated with TNFα): no visible vase-occlusion | reduction of SSRBC adhesion compared to sham-treated SSRBCs (human sickle RBCs; nude mice pretreated with TNFα, n=5, p<0.0001): 88% | vessels and arterioles with normal blood flow (human sickle RBCs; nude mice, versus 50±5.5% with sham-treated cells): 86±3.3% | adherence of normal human RBCs in enflamed vessels (human normal (AA) RBCs): no real adherence | time to abrogation of leukocyte adhesion after administration (leukocytes): ≤ 10 min | inhibition of murine sickle RBC adhesion (murine sickle RBCs; 0.025 mg/kg infused 120 min after TNFα): 76% | inhibition of murine sickle RBC adhesion (murine sickle RBCs; 0.05 mg/kg infused 120 min after TNFα): 99% | inhibition of murine sickle RBC adhesion (murine sickle RBCs; 0.1 mg/kg infused 120 min after TNFα): 98% | time to reversal of murine sickle RBC adhesion after drug administration (murine sickle RBCs; lowest dose 0.025 mg/kg, effect sustained over time): ≤ 10 min | vessels with restored blood flow (murine sickle RBCs; p<0.05 for each RDEA119 dose (0.025, 0.05, 0.1 mg/kg)): 57%

N#CC(=C(/N)Sc1ccccc1N)/C(C#N)=C(\N)Sc1ccccc1N [U0126]
sickle cell adhesion to TNFα-activated endothelial cells (sickle RBCs [6]): reduced sickle cell adhesion | effect of hypoxia on ERK phosphorylation (ERK [3]): decreased the effect of hypoxia on ERK phosphorylation | epinephrine-activated sickle cell adhesion (sickle RBCs [1]; U0126 10 μM): inhibited activated sickle cell adhesion | sickle cell-induced PMN adhesion to endothelial cells (neutrophils (PMNs)): decreased sickle cell-induced PMN adhesion

CC(C)=CCCC(C)=CCCC(C)=CCSc1ccccc1C(=O)O [farnesylthiosalicylic acid]
effect of hypoxia on ERK phosphorylation (ERK [3]): decreased the effect of hypoxia on ERK phosphorylation

Oc1cc(O)cc(/C=C/c2ccc(O)c(O)c2)c1 [piceatannol]
inhibition at 1 µM (SSRBCs; Homo sapiens, HUVEC, shear stress 2 dynes/cm^2, p<0.01, read-out: inhibition of the effect of PTx on sickle cell adhesion): 60 ± 5.5%

CC(C)NCC(O)COc1cccc2ccccc12 (centres unmarked) [propranolol]
human sickle red cell adhesion and associated vasoocclusion in mice (human sickle red cell): inhibited human sickle red cell adhesion
